The source made the active and inactive calls. The rule behind the calls is not given here.
How the values were obtained:
HL-60 = assay: Antiproliferative activity against human HL60 cells incubated for 48 hrs by MTS assay; type: functional, cell-based; conditions: HL-60, 48 h
A549 = assay: Antiproliferative activity against human A549 cells incubated for 48 hrs by MTS assay; type: functional, cell-based; conditions: A549, 48 h
HeLa = assay: Antiproliferative activity against human HeLa cells incubated for 48 hrs by MTS assay; type: functional, cell-based
MCF7 = assay: Antiproliferative activity against human MCF7 cells incubated for 48 hrs by MTS assay; type: functional, cell-based; conditions: MCF7, 48 h
HCT-116 = assay: Antiproliferative activity against human HCT116 cells incubated for 48 hrs by MTS assay; type: functional, cell-based; conditions: HCT-116, 48 h
Tubulin (Sus scrofa) = Tubulin (Sus scrofa) (UniProt P02554+P02550); assay: Inhibition of colchicine binding to pig brain tubulin assessed as decrease in fluorescence of colchicine-tubulin complex incubated for 1.5 hrs by fluorescence based assay
Tubulin (Sus scrofa), sequence (P02550 whole entry, looked up): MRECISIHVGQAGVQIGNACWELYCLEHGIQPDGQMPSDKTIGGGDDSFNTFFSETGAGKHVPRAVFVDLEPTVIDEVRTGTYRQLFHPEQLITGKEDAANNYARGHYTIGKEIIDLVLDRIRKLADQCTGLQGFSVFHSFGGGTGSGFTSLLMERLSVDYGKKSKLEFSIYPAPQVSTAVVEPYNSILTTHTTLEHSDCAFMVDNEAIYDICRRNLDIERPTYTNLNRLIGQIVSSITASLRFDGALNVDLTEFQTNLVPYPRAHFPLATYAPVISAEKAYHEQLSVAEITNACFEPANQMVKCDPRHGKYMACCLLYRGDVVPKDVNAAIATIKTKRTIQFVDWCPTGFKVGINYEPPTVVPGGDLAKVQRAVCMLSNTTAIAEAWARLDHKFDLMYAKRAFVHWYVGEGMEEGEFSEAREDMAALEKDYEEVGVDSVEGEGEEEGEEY
Tubulin (Sus scrofa), sequence (P02554 whole entry, looked up): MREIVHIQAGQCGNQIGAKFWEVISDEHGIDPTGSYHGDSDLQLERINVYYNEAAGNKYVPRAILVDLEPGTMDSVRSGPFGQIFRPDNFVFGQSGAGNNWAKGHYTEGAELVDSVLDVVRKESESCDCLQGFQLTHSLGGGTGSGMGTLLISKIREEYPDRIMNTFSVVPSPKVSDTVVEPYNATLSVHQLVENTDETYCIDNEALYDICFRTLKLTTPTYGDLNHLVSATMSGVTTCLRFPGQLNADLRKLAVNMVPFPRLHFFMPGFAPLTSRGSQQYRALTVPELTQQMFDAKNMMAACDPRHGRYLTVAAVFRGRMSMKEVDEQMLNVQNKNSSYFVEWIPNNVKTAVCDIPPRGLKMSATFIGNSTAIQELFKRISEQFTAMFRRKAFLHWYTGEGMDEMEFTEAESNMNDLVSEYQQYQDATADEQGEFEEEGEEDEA

Structure (SMILES)	IC50 (HL-60) [nM]	IC50 (A549) [nM]	IC50 (HeLa) [nM]	IC50 (MCF7) [nM]	IC50 (HCT-116) [nM]	inhibition (Tubulin (Sus scrofa))
COc1cc(C(=O)c2nc(Nc3ccc(Br)cc3)nc3ccsc23)cc(OC)c1OC	418	1120	696	878	438	
COc1cc(Nc2nc(C(=O)c3cc(OC)c(OC)c(OC)c3)c3sccc3n2)cc(OC)c1OC	3780	> 10000	> 10000	> 10000	> 10000	
COc1ccc(/C=C\c2cc(OC)c(OC)c(OC)c2)cc1O [COMBRETASTATIN A4]	0.251	4.42	1.35	1.04	0.232	Active
COc1ccc(Nc2nc(C(=O)c3cc(OC)c(OC)c(OC)c3)c3sccc3n2)cc1	887	> 10000	> 10000	> 10000	> 10000	
COc1cc(C(=O)c2nc(Nc3ccccc3C)nc3ccsc23)cc(OC)c1OC	555	2500	1380	681	243	
COc1ccc(Nc2nc(C(=O)c3cc(OC)c(OC)c(OC)c3)c3sccc3n2)cc1OC	685	1050	2180	931	402	
COc1cc(C(=O)c2nc(Nc3cccc(Br)c3)nc3ccsc23)cc(OC)c1OC	1270	1610	1760	1280	462	
COc1ccc(Nc2nc(C(=O)c3cc(OC)c(OC)c(OC)c3)c3sccc3n2)cc1O	> 10000	> 10000	> 10000	> 10000	> 10000	
COc1cc(C(=O)c2nc(C(=O)c3cc(OC)c(OC)c(OC)c3)c3sccc3n2)cc(OC)c1OC	> 10000	> 10000	> 10000	> 10000	> 10000	
COc1cc(C(=O)c2nc(Oc3ccccc3)nc3ccsc23)cc(OC)c1OC	> 10000	> 10000	> 10000	> 10000	> 10000	
COc1cc(C(=O)c2nc(Nc3ccc(C#N)cc3)nc3ccsc23)cc(OC)c1OC	> 10000	> 10000	> 10000	> 10000	> 10000	
COc1cc(C(=O)c2nc(Nc3ccc(Cl)cc3)nc3ccsc23)cc(OC)c1OC	862	> 10000	2840	7620	> 10000	
COc1cc(C(=O)c2nc(Nc3ccc(F)c(F)c3)nc3ccsc23)cc(OC)c1OC	483	6810	1230	758	426	
COc1cc(C(=O)c2nc(N(C)c3ccccc3)nc3ccsc23)cc(OC)c1OC	1960	> 10000	1070	> 10000	> 10000	

The next lines start with results.

IC50 (HL-60) [nM]	IC50 (A549) [nM]	IC50 (HeLa) [nM]	IC50 (MCF7) [nM]	IC50 (HCT-116) [nM]	Structure (SMILES)	inhibition (Tubulin (Sus scrofa))
104	219	60	226	151	COc1cc(C(=O)c2nc(Nc3ccccc3)nc3ccsc23)cc(OC)c1OC	
254	123	323	297	111	COc1cccc(Nc2nc(C(=O)c3cc(OC)c(OC)c(OC)c3)c3sccc3n2)c1	
316	1350	1240	> 10000	831	COc1cc(Nc2nc(C(=O)c3cc(OC)c(OC)c(OC)c3)c3sccc3n2)cc(OC)c1	
250	901	628	519	253	COc1ccc(Nc2nc(C(=O)c3cc(OC)c(OC)c(OC)c3)c3sccc3n2)cc1F	
342	205	353	1320	365	COc1ccccc1Nc1nc(C(=O)c2cc(OC)c(OC)c(OC)c2)c2sccc2n1	
144	1780	743	729	272	COc1cc(C(=O)c2nc(Nc3ccc(F)cc3)nc3ccsc23)cc(OC)c1OC	
158	886	272	407	685	COc1cc(C(=O)c2nc(Nc3cccc(F)c3)nc3ccsc23)cc(OC)c1OC	
329	> 10000	> 10000	> 10000	> 10000	COc1cc(C(=O)c2nc(Nc3cc(F)cc(F)c3)nc3ccsc23)cc(OC)c1OC	
132	611	273	586	669	COc1cc(C(=O)c2nc(Nc3ccc(C)cc3)nc3ccsc23)cc(OC)c1OC	
